Source: US7960373B2, “2-alkoxy-3,4,5-trihydroxyalkylamide-benzothiazepines preparation thereof, compositions containing them and use thereof” (Sanofi-Aventis, priority 2006, dated 2011)

Columns and labels:
HCT116 cells = test: inhibition of cell proliferation of HCT116 cells (14C-thymidine incorporation); type: cell-based; conditions: Homo sapiens, HCT-116, HCT116, 96 hours
Description: The antiproliferative activity of the products of the examples of Table 1 was determined by measuring the inhibition of cell proliferation of HCT116 cells. The cells are inoculated in a cell culture medium at a concentration of 10 000 cells per well, in 0.17 mL of medium, and 20 μL of test product, at various concentrations, and 10 μL of thymidine [methyl-14C] (100 μCi/ml—specific activity 47.90 mCi/mmol; NEN Technologies reference NEC568 batch 3550-001) are added, and the cells are then incubated at 37° C. and 5% CO2.
Medium used for the HCT116 cell culturing: DMEM medium 2 mM L-glutamine, 200 IU/ml penicillin, 200 μg/mL streptomycin and 10% (V/V) foetal calf serum (Life Technologies).
After 96 hours, the incorporation of ^14C-thymidine is counted in a 1450 Microbeta Wallac Trilux liquid scintillation counter. The results R are expressed in cpm (counts per minute) and converted to a percentage of growth inhibition GI % by first subtracting the average number of cpm for the wells without B cells and then dividing the number of cpm for the wells of the untreated cells C comprising 20 μL of product dilution medium containing 1% ethanol. (GI %=(R−B)×100/C %).
The IC50 values are calculated by means of equation 205 of the XLFit software (IDBS company, UK) via non-linear regression analysis using the Marquardt algorithm (Donald W. Marquardt, J. Soc. Industry. Appl., vol. 11, No. 2, June, 1963).

[1] = Caco2-TC7 permeability (Papp single point); type: in vitro ADME; conditions: human, Caco-2
[2] = total metabolic stability (% metabolization); type: in vitro ADME; conditions: in mice
Excerpt: This compound has better total metabolic stability (11% metabolization in mice) than the product of Example 20 (99%) described in patent application WO 2006/056 696.

| SMILES | IC50 (HCT116 cells) [nM] | Papp [1] [×10⁻⁶ cm/s] | total metabolic stability, % metabolization [2] [%] |
| --- | --- | --- | --- |
| CO[C@@H](C(=O)N[C@H]1CSc2ccccc2N(C)C1=O)[C@H](O)[C@@H](O)[C@H](O)/C=C/C(C)(C)C [Example 4, N-[(3R)-5-methyl-4-oxo-2,3,4,5-tetrahydro-1,5-benzothiazepin-3-yl]-(6E)-(2R,3R,4S,5R)-3,4,5-trihydroxy-2-methoxy-8,8-dimethylnon-6-enamide] | 19 | – | – |
| CO[C@@H](C(=O)N[C@H]1CSc2ccccc2N(C)C1=O)[C@H](O)[C@@H](O)[C@H](O)/C=C/C1CCCC1 [Example 9, (2R,3R,4S,5R,6E)-7-cyclopentyl-3,4,5-trihydroxy-2-methoxy-N-[(3R)-5-methyl-4-oxo-2,3,4,5-tetrahydro-1,5-benzothiazepin-3-yl]hept-6-enamide] | 7 | – | – |
| CO[C@@H](C(=O)N[C@H]1C[S@@+]([O-])c2ccccc2N(Cc2cc(F)cc(F)c2)C1=O)[C@H](O)[C@@H](O)[C@H](O)/C=C/C(C)(C)C [Example 1] | 9 | – | – |

The remaining molecules from weak to strong by IC50 (HCT116 cells), led by results:

| IC50 (HCT116 cells) [nM] | Papp [1] [×10⁻⁶ cm/s] | total metabolic stability, % metabolization [2] [%] | SMILES |
| --- | --- | --- | --- |
| 20 | – | – | CO[C@@H](C(=O)N[C@H]1C[S@+]([O-])c2ccccc2N(Cc2cc(F)cc(F)c2)C1=O)[C@H](O)[C@@H](O)[C@H](O)/C=C/C(C)(C)C [Example 2] |
| 14 | 2.3 | 11 | CO[C@@H](C(=O)N[C@H]1CSc2c(Cl)cc(C(F)(F)F)cc2NC1=O)[C@H](O)[C@@H](O)[C@H](O)/C=C/C(C)(C)C [Example 5, N-((3R)-9-chloro-4-oxo-7-trifluoromethyl-2,3,4,5-tetrahydro-1,5-benzothiazepin-3-yl)-(6E)-(2R,3R,4S,5R)-3,4,5-trihydroxy-2-methoxy-8,8-dimethylnon-6-enamide] |
| 10 | – | – | CO[C@@H](C(=O)N[C@H]1CSc2ccccc2N(Cc2ccccc2)C1=O)[C@H](O)[C@@H](O)[C@H](O)/C=C/C(C)(C)C [Example 3, N-[(3R)-5-benzyl-4-oxo-2,3,4,5-tetrahydro-1,5-benzothiazepin-3-yl]-(6E)-(2R,3R,4S,5R)-3,4,5-trihydroxy-2-methoxy-8,8-dimethyl non-6-enamide] |
